Measurements taken from patent US20210207161A1, “PLANTS CONTAINING ELITE EVENT EE-GM5 AND METHODS AND KITS FOR IDENTIFYING SUCH EVENT IN BIOLOGICAL SAMPLES, AND TREATMENT THEREOF” (priority 2018, published 2021).

Assays:
[1] = test system: soybean plants containing event EE-GM5; test: HPPD inhibitor herbicide tolerance field trials (maximum phytotoxicity); assay type: in vivo, soybean (Glycine max); settings: for average maximum phytotoxicity value: several field trials across 2 years; for tolerance of plants with EE-GM5 to the herbicide: field, different locations over 2 years
Source text: Numbers in ( ) below a treatment give the number of trials included in the bar, the number on top of each bar gives the average maximum phytotoxicity value for that treatment. Treatments applied were: IFT=isoxaflutole, MST=mesotrione, PE=pre-emergence, P0=post-emergence (at V2-V3 stage, with adjuvants crop oil concentrate and ammonium sulfate added to increase herbicide activity). Rates shown are in gram active ingredient/hectare (4× dose in pre-emergence, 2× dose in post-emergence).
Tolerance of plants comprising EE-GM5 to HPPD inhibitor herbicides was tested at different locations in the field over 2 years. […] All post-emergence treatments were at the V2-V3 stage, with adjuvants crop oil concentrate and ammonium sulfate added to increase herbicide activity.
The “maximum phytotoxicity” as used herein is the highest phytotoxicity rating recorded at any observation during the duration of a trial (with 3 to 4 observations per trial). In existing weed control applications, a normal (lx) dose for isoxaflutole (IFT) in pre- or post-emergence application and for MST in post-emergence application is 105 gr/ha, and a normal (lx) dose for mesotrione in pre-emergence application is 210 gr/ha.
Also, in several field trials across 2 years, soybean plants with event EE-GM5 had good tolerance towards experimental HPPD inhibitor compound 2-methyl-N-(5-methyl-1,3,4-oxadiazol-2-yl)-3-(methylsulfonyl)-4-(trifluoromethyl)benzamide (U.S. Pat. No. 9,101,141) when applied pre-emergence at 400 gr ai/ha or post-emergence at 200 gr ai/ha, respectively (the average maximum phytotoxicity value for each treatment was below 20%). […] All post-emergence treatments were at the V2-V3 stage, with adjuvants crop oil concentrate and ammonium sulfate added to increase herbicide activity.
Also, plants with EE-GM5 when treated post-emergent (V2-V3) with topramezone at 36 g ai/ha (+COC and AMS) in 2 field trials in the US gave an average maximum phytotoxicity of 11%, showing EE-GM5 also confers good tolerance to this HPPD inhibitor.

[2] = test system: soybean plants containing event EE-GM5; test: as above; assay type: in vivo, soybean (Glycine max); settings: 3rd year
[3] = applied post-emergence (V2-V3 stage, with adjuvants)

CSc1c(C(F)(F)F)ccc(C(=O)Nc2nnnn2C)c1Cl [2-chloro-3-(methylsulfanyl)-N-(1-methyl-1H-tetrazol-5-yl)-4-(trifluoromethyl)benzamide]
average maximum phytotoxicity ([1]; post-emergence (V2-V3) at 100-150 gr ai/ha, with crop oil concentrate and ammonium sulfate): 20% | average maximum phytotoxicity ([2]; post-emergence at 150 g/ha, 3 field trial locations, Thorne background): 13.3%

Cc1nnc(NC(=O)c2ccc(C(F)(F)F)c(S(C)(=O)=O)c2C)o1 [2-methyl-N-(5-methyl-1,3,4-oxadiazol-2-yl)-3-(methylsulfonyl)-4-(trifluoromethyl)benzamide]
average maximum phytotoxicity value ([1]; post-emergence (V2-V3) at 200 gr ai/ha, with crop oil concentrate and ammonium sulfate): below 20% | average maximum phytotoxicity value ([1]; pre-emergence at 400 gr ai/ha): below 20%

CS(=O)(=O)c1cc(C(F)(F)F)ccc1C(=O)c1cnoc1C1CC1 [isoxaflutole, (5-cyclopropyl-4-isoxazolyl)[2-(methylsulfonyl)-4-(trifluoromethyl)phenyl]methanone]
tolerance of plants with EE-GM5 to the herbicide [1, 3]: commercially relevant tolerance | tolerance of plants with EE-GM5 to the herbicide ([1]; applied pre-emergence): commercially relevant tolerance | average maximum phytotoxicity ([2]; post-emergence (V2-V3 stage), 210 h/ha, 4 locations, EE-GM5 in Thorne background): 10.9% | maximum phytotoxicity ([2]; pre-emergence, 410 g/ha, one field trial location, EE-GM5 in Thorne background): 9%

CS(=O)(=O)c1ccc(C(=O)C2C(=O)CCCC2=O)c([N+](=O)[O-])c1 [mesotrione, 2-[4-(Methylsulfonyl)-2-nitrobenzoyl]cyclohexane-1,3-dione]
tolerance of plants with EE-GM5 to the herbicide [1, 3]: commercially relevant tolerance | tolerance of plants with EE-GM5 to the herbicide ([1]; applied pre-emergence): commercially relevant tolerance

Cc1c(C(=O)c2cnn(C)c2O)ccc(S(C)(=O)=O)c1C1=NOCC1 [topramezone, [3-(4,5-dihydro-3-isoxazolyl)-2-methyl-4-(methylsulfonyl)phenyl](5-hydroxy-1-methyl-1H-pyrazol-4-yl)methanone]
average maximum phytotoxicity ([1]; post-emergent (V2-V3) at 36 g ai/ha (+COC and AMS), 2 field trials in the US): 11%
